Assay results: US6147097A, “Imidazole derivatives as anti-HIV agents” (Shionogi & Co., Ltd., priority 1994, dated 2000)
≈ marks a conversion by molar mass, not a printed value. Like-named read-outs stand apart in the source and are kept apart here.

Tests used:
HIV (HTLV-IIIB strain) = test: microbe, parasite or virus in culture; format: cell-based; conditions: Human immunodeficiency virus 1, IIIB, MT4, 120 h
Procedure, shortened: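 Protection from virus was read as viable-cell MTT conversion to formazan after 5 days at 37° C. The cultures contained MT-4 cells (3.5×10^4/well), compound dilutions and 60 pfu HIV per well.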

[1] = cytotoxicity in MT-4 cells (MTT, culture medium in place of HIV); format: cell-based; conditions: human
Procedure, shortened: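 Uninfected readout: compound-treated MT-4 cultures, 3.5×10^4 cells/well, received medium in place of virus and were kept 5 days at 37° C. Viability measured by 1 h MTT reduction, solubilized formazan read at 560/690 nm relative to control wells.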

[2] = biological target: T1, purified recombinant HIV-1 reverse transcriptase (Human immunodeficiency virus type 1 group M subtype B, UniProt P04585); test: reverse transcriptase inhibition, poly(rA)/(dT) template primer, [3H]dTTP uptake; format: biochemical
T1 construct: purified recombinant HIV-1 reverse transcriptase; made in house; host or cells: Escherichia coli
Procedure, shortened: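 Inhibition reported as percent reduction of [3H]dTTP incorporation relative to solvent control, after 1 h at 37 °C at pH 8.3. Recombinant RT from E. coli, poly(rA) template with oligo(dT) primer, 4 μM unlabeled dTTP as substrate; product collected on DEAE filter mats.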

[3] = MT-4 cells, 60 pfu HIV per well, 37° C., 5 days, MTT, Tables 1 and 2, read-out: EC50
[4] = MT-4 cells, no virus, 37° C., 5 days, MTT, Table 3, read-out: CC50

Compound | EC50 (HIV (HTLV-IIIB strain); [3]) | CC50 at 120 h [1, 4] | IC50 [2] | EC50 (HIV (HTLV-IIIB strain)) | IC50 ([2]; read-out: RT IC50, pH 8.3, 37° C., 1 hour, Tables 5 and 6) | CC50 at 120 h ([1]; mt-4 cells)
CC(C)c1nc(COC(N)=O)n(CC(F)(F)F)c1Sc1cc(Cl)cc(Cl)c1 [Compound I-55, 2-carbamoyloxymethyl-5-(3,5-dichlorophenylthio)-4-isopropyl-1-(1,1,1-trifluoroethyl)-1H-imidazole] | 0.008 µg/mL (≈ 0.0181 µM) | 10 to 100 µg/mL (≈ 22.6 to 226 µM) | 5.65 µM | – | – | –
CC(C)c1nc(COC(N)=O)n(CF)c1Sc1cc(Cl)cc(Cl)c1 [Compound I-56, 2-carbamoyloxymethyl-5-(3,5-dichlorophenylthio)-1-fluoromethyl-4-isopropyl-1H-imidazole] | – | 10 to 100 µg/mL (≈ 25.5 to 255 µM) | 2.37 µM | 0.008 µg/mL (≈ 0.0204 µM) | – | –
CCn1c(COC(N)=O)nc(C(C)C)c1Sc1cccc(F)c1 [Compound I-57, 2-carbamoyloxymethyl-1-ethyl-5-(3-fluorophenylthio)-4-isopropylethyl-1H-imidazole] | – | 25 to 50 µg/mL (≈ 74.1 to 148 µM) | – | 0.0005 to 0.001 µg/mL (≈ 0.00148 to 0.00296 µM) | 0.119 µM | –
CCn1c(COC(N)=O)nc(C(C)C)c1Sc1cc(F)cc(F)c1 [Compound I-58, 2-carbamoyloxymethyl-5-(3,5-difluorophenylthio)-1-ethyl-4-isopropyl-1H-imidazole] | – | 10 to 100 µg/mL (≈ 28.1 to 281 µM) | 0.422 µM | 0.002 µg/mL (≈ 0.00563 µM) | – | –
CC(C)c1c(Sc2cccc(Cl)c2)nc(COC(N)=O)n1C [Compound I-59, 2-carbamoyloxymethyl-4-(3-chlorophenylthio)-5-isopropyl-1-methylimidazole] | – | 12.5 to 25 µg/mL (≈ 36.8 to 73.6 µM) | > 294 µM | 12.5 µg/mL (≈ 36.8 µM) | – | –
CC(=O)OCCOCc1nc(C(C)C)c(Sc2cc(Cl)cc(Cl)c2)n1C [Compound I-60, 2-{[5-(3,5-dichlorophenylthio)-4-isopropyl-1-methylimidazol-2-yl]methoxy} ethyl acetate] | ≥ 0.5 µg/mL | 12.5 to 25 µg/mL | > 240 µM | – | – | –
CC(C)c1nc(COCCOC(N)=O)n(C)c1Sc1cc(Cl)cc(Cl)c1 [Compound I-61, (2-carbamoyloxy)ethoxymethyl-5-(3,5-dichlorophenylthio)-4-isopropyl-1-methyl-1H-imidazole] | 0.5 µg/mL (≈ 1.2 µM) | 6.3 to 12.5 µg/mL (≈ 15.1 to 29.9 µM) | 185 µM | – | – | –
CCn1c(COCCOC(C)=O)nc(C(C)C)c1Sc1cc(Cl)cc(Cl)c1 [Compound I-62, 2-{[5-(3,5-dichlorophenylthlio)-1-ethyl-4-isopropyl-1H-imidazol-2-yl]methoxy} ethyl acetate] | 0.03 to 0.06 µg/mL | 12.5 to 25 µg/mL | 15.8 µM | – | – | –
CCn1c(COCCOC(N)=O)nc(C(C)C)c1Sc1cc(Cl)cc(Cl)c1 [Compound I-63, 2-(2-carbamoyloxyethoxy)methyl-5-(3,5-dichlorophenylthio)-1-ethyl-4-isopropyl-1H-imidazole] | 0.25 µg/mL (≈ 0.578 µM) | 12.5 µg/mL (≈ 28.9 µM) | 10.9 µM | – | – | –
CC(C)c1nc(CN)n(C)c1Sc1cc(Cl)cc(Cl)c1.O=C(O)C(=O)O [Compound I-66, 2-aminomethyl-5-(3,5-dichlorophenylthio)-4-isopropyl-1-methylimidazole oxalate] | 0.016 µg/mL | 6.3 to 12.5 µg/mL | 1.64 µM | – | – | –
CC(C)c1nc(CN)n(C)c1Sc1cccc([N+](=O)[O-])c1 [Compound I-67, 2-aminomethyl-4-isopropyl-1-methyl-5-(3-nitrophenylthio)-1H-imidazole] | 0.13 to 0.25 µg/mL (≈ 0.424 to 0.816 µM) | 12.5 to 25 µg/mL (≈ 40.8 to 81.6 µM) | 17.6 µM | – | – | –
CC(C)c1nc(CN)n(C)c1Sc1cccc(Cl)c1.Cl [Compound I-69, 2-aminomethyl-5-(3-chlorophenylthio)-4-isopropyl-1-methyl-1H-imidazole hydrochloride] | 0.25 µg/mL | – | 6.92 µM | – | – | 6.3 µg/mL
CC(C)c1nc(CN)n(Cc2ccccc2)c1Sc1cc(Cl)cc(Cl)c1 [Compound I-70, 2-aminomethyl-1-benzyl-5-(3,5-dichlorophenylthio)-4-isopropylimidazole] | 0.03 µg/mL (≈ 0.0738 µM) | 6.3 to 12.5 µg/mL (≈ 15.5 to 30.8 µM) | 4.43 µM | – | – | –
CCn1c(CN)nc(C(C)C)c1Sc1cc(Cl)cc(Cl)c1 [Compound I-71, 2-aminomethyl-5-(3,5-dichlorophenylthio)-1-ethyl-4-isopropyl-1H-imidazole] | 0.008 µg/mL (≈ 0.0232 µM) | 1 to 10 µg/mL (≈ 2.9 to 29 µM) | 0.987 µM | – | – | –
CC(C)c1nc(CN)n(C(C)C)c1Sc1cc(Cl)cc(Cl)c1 [Compound I-72, 2-aminomethyl-5-(3,5-dichlorophenylthio)-1,4-diisopropylimidazole] | 0.03 to 0.06 µg/mL (≈ 0.0837 to 0.167 µM) | 1 to 10 µg/mL (≈ 2.79 to 27.9 µM) | 2.23 µM | – | – | –
CCn1c(CN)nc(C(C)C)c1Sc1cccc(Cl)c1 [Compound I-73, 2-aminomethyl-5-(3-chlorophenylthio)-1-ethyl-4-isopropylimidazole] | 0.016 µg/mL (≈ 0.0516 µM) | – | 0.807 µM | – | – | 6.3 µg/mL (≈ 20.3 µM)
